Experimental data: patent publication US20160340334A1, “METHOD FOR ISOLATION OF ALKALOIDS AND AMINO ACIDS, AND CO[…] ALKALOIDS AND AMINO ACIDS” (priority 2015, published 2016)

Tests used:
migraine = conditions: tryptophan administered in the form of 5-HTP; cited from earlier work
[1] = nicotine after extraction (Example 1); clinical studies
[2] = test system: models of Parkinson's disease; conditions: intermittent nicotine treatment; cited from earlier work

Row | SMILES | aborting or significantly mitigating pain after onset of a migraine (migraine) | effect in migraine prevention (migraine) | side effects on use for treatment [1] | reduction of medication-induced dyskinesias [2]
1 | N[C@@H](Cc1c[nH]c2ccc(O)cc12)C(=O)O [5-HTP, 5-Hydroxytryptophan] | ineffective | only moderate effects |  | 
2 | CN1CCCC1c1cccnc1 (stereo not shown) [nicotine] |  |  | without side effects such as tachyphylaxis | ≤ 50%
